The values that follow come from paper doi:10.1101/2025.02.03.636334v1 (biorxiv, 2025).

This assay has as its system M. tuberculosis H37Rv. Kind of assay: microbe, parasite or virus in culture. The note with it: Mycobacterium tuberculosis, 192 h, read-out: Mtb MIC (µM).

Converted amounts (≈) assume the structure as drawn.

In the case of `O=C(CN1C(=O)NC(c2ccccc2)(c2ccccc2)C1=O)Nc1ccccc1C(=O)NC1CCCC1` [Z54675683], the MIC worked out at 100 µM (≈ 49.7 µg/mL).

As for `Clc1ccc2nc(N3N=C(c4ccccc4)CC3c3cccc(Br)c3)nc(-c3ccccc3)c2c1` (stereo not drawn) [Z1558470019], the MIC was found to be 100 µM (≈ 54 µg/mL). `Clc1ccc(-c2nc(NN=Cc3ccc4ccccc4n3)nc3ccccc23)cc1` [Z1187818773]: the MIC was 100 µM (≈ 41 µg/mL).

Consider `O=C(c1nn(-c2ccccc2)c(=O)c2ccccc12)N1CCCN(Cc2ccc(Cl)cc2)CC1` [Z212593638], for which the MIC was 50 µM (≈ 23.6 µg/mL). In the case of `CC(NC(=O)CN1C(=O)NC(c2ccccc2)(c2ccccc2)C1=O)c1ccc(Cl)cc1` (stereo not drawn) [Z14475560], the MIC was determined as 100 µM (≈ 44.8 µg/mL).

`O=C(c1nn(Cc2ccccc2)c(=O)c2ccccc12)N1CCN(Cc2ccc3c(c2)CCO3)CC1` [Z102666506]: the MIC was determined as 100 µM (≈ 48.1 µg/mL). The value for `O=C(CN1C(=O)NC2(CCc3ccccc32)C1=O)c1c(-c2ccc(F)cc2)[nH]c2ccccc12` (stereo not drawn) [Z89714290] was 25 µM (≈ 11.3 µg/mL); that for `Cc1cccc(-c2nn(-c3ccccc3)cc2C(=O)Oc2ccccc2-c2nc3ccccc3s2)c1` [Z26889353] was 100 µM (≈ 48.8 µg/mL).

As to `Fc1ccc(C2Oc3ccccc3C3CC(c4ccc(-c5ccccc5)cc4)=NN32)cc1` (stereo not drawn) [Z56765649], the MIC worked out at 25 µM (≈ 10.5 µg/mL). In the case of `O=C(CCc1nc2c(cnn2-c2ccccc2)c(=O)[nH]1)N1CCCC1c1ccc2c(c1)OCCCO2` (stereo not drawn) [Z140090268], the MIC came to 100 µM (≈ 48.6 µg/mL). Take `O=C(Nc1cn(-c2ccccc2)nc1-c1ccc(F)cc1)Nc1cccc2ccccc12` [Z85924883]: the MIC was 100 µM (≈ 42.2 µg/mL).

As for `c1cncc(-c2nc(N3CCN(Cc4ccc5ccccc5c4)CC3)c3ccccc3n2)c1` [Z237483836], the MIC was 100 µM (≈ 43.2 µg/mL). The same measure for `O=C(N[C@@H](Cc1ccccc1)c1nc2ccccc2[nH]1)c1ccc(-c2cccc(C(F)(F)F)c2)o1` [Z57992786]: 100 µM (≈ 47.5 µg/mL). The same measure for `O=C(CN1CCN(C(=O)c2cccc3ccccc23)CC1)Nc1ccccc1Cc1ccccc1` [Z316384350]: 25 µM (≈ 11.6 µg/mL). Turning to `O=C(N=C1N=C2C=CC=CN2Cc2ccccc21)c1cn(-c2ccccc2)nc1-c1ccc(F)cc1` [Z56787786], the MIC was found to be 100 µM (≈ 47.4 µg/mL). The value for `CCn1c2ccccc2c2cc(NC(=O)c3cc(-c4ccccc4)nc4ccccc34)ccc21` [Z30593627] was 100 µM (≈ 44.2 µg/mL); that for `Cc1ccc(-c2cc(C(=O)N3CCC(C(=O)Nc4ccc5c(c4)OCO5)CC3)c3ccccc3n2)o1` [Z99494285] was 100 µM (≈ 48.4 µg/mL); that for `O=C(c1ccccc1)c1ccc(Cl)cc1Nc1cc(-c2ccccc2)c2cc(Cl)ccc2n1` [Z2196034878] was 100 µM (≈ 46.9 µg/mL). For `O=C(/C=C/c1cn(-c2ccccc2)nc1-c1ccc(F)cc1)N1CCCS/C1=N\c1ccccc1` [Z27871611], the MIC amounted to 100 µM (≈ 48.3 µg/mL). Turning to `Cc1ccc(-c2cc(C(=O)Oc3ccc(Oc4ccccc4)cc3)c3ccccc3n2)cc1` [Z30908638], the MIC worked out at 100 µM (≈ 43.1 µg/mL).

With `c1ccc(C(c2ccccc2)N2CCN(c3nc4ccccc4c4nc(-c5cccnc5)nn34)CC2)cc1` [Z1157836627], the MIC was determined as 100 µM (≈ 49.8 µg/mL). The same measure for `N#Cc1ccc(CN2CCN(C(=O)c3cc(-c4ccccc4)nn3-c3ccccc3)CC2)cc1` [Z28887309]: 50 µM (≈ 22.4 µg/mL); for `Cc1ccc2c(-c3ccccc3)nc(NN=Cc3c[nH]c4ccccc34)nc2c1` [Z1409330734]: 50 µM (≈ 18.9 µg/mL). As to `CC1(c2ccc3ccccc3c2)NC(=O)N(CC(=O)Nc2nc(-c3ccc4c(c3)CCC4)cs2)C1=O` (stereo not drawn) [Z28888852], the MIC is 3.1 µM (≈ 1.54 µg/mL). As for `O=C(NNc1ccc(F)cc1)c1cccc(S(=O)(=O)N2CCc3ccccc3C2)c1` [Z30877419], the MIC amounted to 100 µM (≈ 42.5 µg/mL). As for `O=C1C(=CNc2cccc(C(F)(F)F)c2)c2ccccc2C(=O)N1c1cccc(C(F)(F)F)c1` [Z31274934], the MIC turned out to be 6.2 µM (≈ 2.95 µg/mL). As to `O=C(CN1CCCC1c1ccc2c(c1)OCCCO2)Nc1ccccc1Cc1ccccc1` (stereo not drawn) [Z65195872], the MIC is 50 µM (≈ 22.1 µg/mL). Turning to `O=C(Nc1ccc(-n2cnc3ccccc32)cc1)c1nn(-c2ccccc2)c(=O)c2ccccc12` [Z82203216], the MIC worked out at 100 µM (≈ 45.7 µg/mL). `O=C(Cn1c2ccccc2c(=O)c2ccccc21)NC(c1ccccc1)c1cc2ccccc2o1` (stereo not drawn) [Z229616646]: the MIC came out at 100 µM (≈ 45.9 µg/mL). Regarding `O=c1[nH]c(CN2CCN(C(c3ccc(F)cc3)c3ccc(F)cc3)CC2)nc2sc3c(c12)CCC3` [Z105382408], the MIC is 100 µM (≈ 49.3 µg/mL). The value for `O=C(NN1C(=O)NC(c2ccccc2)(c2ccccc2)C1=O)c1ccc(-c2ccccc2F)o1` [Z137249014] was 100 µM (≈ 45.5 µg/mL); that for `Cc1ccc2c(-c3ccccc3)nc(NN=Cc3cnc4ccccc4n3)nc2c1` [Z2488926519] was 100 µM (≈ 39 µg/mL); that for `Cc1ccc(-c2nn(Cc3ccccc3)cc2C2NC(=O)c3ccccc3N2)cc1` (stereo not drawn) [Z94792468] was 100 µM (≈ 39.4 µg/mL). In the case of `O=C(Nc1ccc(F)c(S(=O)(=O)Nc2cccc(C(F)(F)F)c2)c1)c1cc2ccccc2o1` [Z33249504], the MIC came to 50 µM (≈ 23.9 µg/mL).

`Cc1cccc(C2CC(c3ccc(N(C)C)cc3)=NN2c2nc(-c3ccc(Cl)cc3)c3ccccc3n2)c1` (stereo not drawn) [Z1898794184]: the MIC was determined as 100 µM (≈ 51.8 µg/mL).

Regarding `O=C(Nc1ccc(F)cc1)C(c1ccccc1)N1C(=O)NC(c2ccccc2)(c2ccccc2)C1=O` (stereo not drawn) [Z14471296], the MIC was 100 µM (≈ 48 µg/mL). Consider `NC(=O)C1Cc2ccccc2CN1C(=O)CCc1c(-c2ccc(F)cc2)[nH]c2ccccc12` (stereo not drawn) [Z143202488], for which the MIC was 100 µM (≈ 44.2 µg/mL). Turning to `Cc1ccc2nc(-c3ccc(NC(=O)c4cc(-c5ccccc5)nn4-c4ccccc4)cc3)sc2c1` [Z27663993], the MIC stood at 100 µM (≈ 48.7 µg/mL). On to `O=C(c1ccc2noc(-c3ccccc3)c2c1)N1CCN(Cc2ccc3c(c2)CCO3)CC1` [Z102669950], for which the MIC stood at 100 µM (≈ 44 µg/mL).

As to `O=C(CN1C(=O)NC(c2ccccc2)(c2ccccc2)C1=O)NC(c1ccccc1)c1ccccc1` [Z14474580], the MIC was determined as 100 µM (≈ 47.6 µg/mL). As for `Cc1nn(-c2ccccc2)c2sc(C(=O)N=C3N=C4C=CC(Br)=CN4Cc4ccccc43)cc12` [Z56688850], the MIC came out at 100 µM (≈ 52.8 µg/mL).

As for `O=C(Nc1nc(-c2cccs2)cs1)c1cc(-c2ccccc2)nc2ccccc12` [Z28307167], the MIC is 100 µM (≈ 41.4 µg/mL).

In the case of `O=C(CCc1ccc(-c2ccccc2)o1)N1CCN(c2ccnc3cc(Cl)ccc23)CC1` [Z285125220], the MIC was 100 µM (≈ 44.6 µg/mL). With `Cc1ccc(-c2cn3c(C(=S)Nc4ccc(F)cc4)c(-c4ccccc4)c4c3n2CCCC4)cc1` [Z57009953], the MIC is 100 µM (≈ 48 µg/mL). For `O=c1[nH]c(SCc2cc(F)cc3c2OC(c2ccccc2)OC3)nc2sc3c(c12)CCCC3` (stereo not drawn) [Z13684502], the MIC worked out at 100 µM (≈ 48.1 µg/mL). `Cc1ccc(-c2nc(N3N=C(c4cccc(Br)c4)CC3c3cccc(Br)c3)nc3ccccc23)cc1` (stereo not drawn) [Z1558581154]: the MIC is 100 µM (≈ 59.8 µg/mL). Turning to `O=C(c1ccc(F)cc1)N1CCN(Cc2nc3sc4c(c3c(=O)[nH]2)CCCC4)CC1` [Z26985512], the MIC worked out at 25 µM (≈ 10.7 µg/mL). As for `O=C(c1ccccc1)c1ccc(Cl)cc1Nc1cc(-c2ccccc2)c2ccc(Cl)cc2n1` [Z1386458621], the MIC came to 100 µM (≈ 46.9 µg/mL). Consider `O=S(=O)(c1cccc(C(F)(F)F)c1)N1CCN(c2nc(-c3ccccc3)nc3ccccc23)CC1` [Z31104682], for which the MIC was determined as 100 µM (≈ 49.9 µg/mL). As for `O=C(COC(=O)c1c2c(nc3ccccc13)CCN(Cc1ccccc1)C2)Nc1c(F)cccc1F` [Z55704575], the MIC worked out at 100 µM (≈ 48.8 µg/mL). As to `c1ccc(-c2ccc(Oc3nc(-c4ccccc4)cc(-c4ccccc4)n3)cc2)cc1` [Z1037335802], the MIC worked out at 100 µM (≈ 40 µg/mL). The same measure for `Cc1ccc(-c2ccsc2C(=O)NNS(=O)(=O)c2ccc3oc(=O)ccc3c2)cc1` [Z299677296]: 100 µM (≈ 44.1 µg/mL); for `Oc1nc2cc(Cl)ccc2c(-c2ccccc2)c1-c1cc(-c2ccccc2)c2ccc(Cl)cc2n1` [Z2010009645]: 100 µM (≈ 49.3 µg/mL). In the case of `O=C(OCc1nc2sc3c(c2c(=O)[nH]1)CCCC3)c1cn(-c2ccccc2)nc1-c1ccccc1` [Z53787257], the MIC is 100 µM (≈ 48.3 µg/mL). On to `Fc1ccccc1C1Oc2ccccc2C2CC(c3ccc(-c4ccccc4)cc3)=NN21` (stereo not drawn) [Z56764284], for which the MIC worked out at 100 µM (≈ 42 µg/mL). In the case of `Cc1ccc(-c2cc(C(=O)N3CCN(Cc4ccncc4)CC3)c3ccccc3n2)cc1` [Z70806128], the MIC was 100 µM (≈ 42.3 µg/mL). For the compound `O=C(COC(=O)c1cc(-c2cccc3ccccc23)nc2ccccc12)Nc1cc(C(F)(F)F)ccc1N1CCOCC1` [Z18816890], the MIC worked out at 100 µM (≈ 58.6 µg/mL). For the compound `Nc1c(-c2ccccc2)c(CN2CCN(c3ccccc3F)CC2)nn1-c1ccc(F)cc1` [Z56903079], the MIC amounted to 25 µM (≈ 11.1 µg/mL). `O=C(COC(=O)c1cc(-c2ccccc2)nn1-c1ccccc1)NC(c1ccccc1)c1ccccc1` [Z15852380]: the MIC was determined as 100 µM (≈ 48.8 µg/mL). For the compound `O=C(Nc1ccc2c(c1)OCO2)C1CCN(C(=O)c2nn(-c3ccccc3)c(=O)c3ccccc23)CC1` [Z99494278], the MIC turned out to be 100 µM (≈ 49.7 µg/mL).

On to `Nc1nn(C(=O)c2cc(S(=O)(=O)Nc3cccc(C(F)(F)F)c3)ccc2Cl)c2ccccc12` [Z381337772], for which the MIC worked out at 100 µM (≈ 49.5 µg/mL). Take `CN1C(=CC=NNC(=O)c2cn(-c3ccccc3)nc2-c2ccccc2)C(C)(C)c2ccccc21` [Z44838075]: the MIC turned out to be 100 µM (≈ 46.2 µg/mL). As to `O=C(NCc1ccccc1)c1ccc(Oc2nc(-c3ccccc3)cc(-c3ccccc3)n2)cc1` [Z1037335532], the MIC is 100 µM (≈ 45.8 µg/mL).

`Cc1ccc(-c2cc(C(=O)N3CCN(Cc4nc5ccccc5s4)CC3)c3ccccc3n2)cc1` [Z28583171]: the MIC was 6.2 µM (≈ 2.97 µg/mL). For the compound `c1cncc(-c2nc(N3CCN(Cc4ccc5c(c4)CCO5)CC3)c3ccccc3n2)c1` [Z128095220], the MIC was 25 µM (≈ 10.6 µg/mL). The same measure for `O=C(CN1C(=O)NC2(CCc3ccccc32)C1=O)NC(c1ccccc1)c1ccc(Cl)cc1` (stereo not drawn) [Z65674656]: 100 µM (≈ 46 µg/mL); for `Cc1ccc2nc(-c3ccc(NC(=O)c4cccc(S(=O)(=O)Nc5cccc(C(F)(F)F)c5)c4)cc3)sc2c1` [Z56810513]: 6.2 µM (≈ 3.52 µg/mL); for `O=C(Nc1ccc2oc3ccccc3c2c1)c1ccc(=O)n(Cc2ccccc2)n1` [Z30534850]: 100 µM (≈ 39.5 µg/mL). As for `O=C1NC2(CCCC2)C(=O)N1Cc1cn(-c2ccccc2)nc1-c1ccc(Cl)cc1` [Z25701709], the MIC is 100 µM (≈ 42.1 µg/mL). For the compound `Cc1ccc(-c2nn(-c3ccccc3)cc2CCC(=O)Nc2cccc3ccccc23)cc1` [Z56806542], the MIC worked out at 100 µM (≈ 43.2 µg/mL).

For `O=c1[nH]c(SCc2cn(-c3ccccc3)nc2-c2ccccc2)nc2c1cnn2-c1ccccc1` [Z150144208], the MIC came to 3.1 µM (≈ 1.48 µg/mL). The value for `O=C1c2ccccc2C(=O)N1C(Cc1ccccc1)c1nc2c3ccccc3ncn2n1` (stereo not drawn) [Z2176371175] was 100 µM (≈ 41.9 µg/mL).
